Source: the Deep4Chem optical property database
Several values for one entry are separate records, joined by “and”; a condition that tells them apart may be missing. Equal values may be shown once.

Test: solvent given as SMILES

F[B-]1(F)n2c(Cl)ccc2C(c2c(Cl)cccc2Cl)=C2C=CC(NCc3ccccc3)=[N+]21
absorption maximum (in CC#N): 479 nm
absorption maximum (in CCCCCC): 523 nm
absorption maximum (in CCOC(C)=O): 497 nm
absorption maximum (in CO): 488 nm
absorption maximum (in ClCCl): 505 nm

COc1cc(OC)cc(C2=[O+][B-](F)(F)OC(c3ccc4cc(OC)ccc4c3)=C2)c1
absorption maximum (in ClCCl): 427 nm

Cc1cc(C)c(-c2c3ccccc3c3ccc4cc5c(-c6c(C)cc(C)cc6C)c6ccccc6c6ccc7cc2c3c4c7c56)c(C)c1
absorption maximum (in ClCCl): 607 nm

c1ccc(N(c2ccccc2)c2ccc(-n3ccc4cc(-c5ccc(C6(c7ccccc7)c7ccccc7-c7ccccc76)cc5)ccc43)cc2)cc1
absorption maximum (in ClCCl): 308 nm

O=C(O)CCCCCn1c2ccc(Br)cc2c(=O)c2cc3c(cc21)c(=O)c1cc(Br)ccc1n3CCCCCC(=O)O
absorption maximum (in CO): 533 nm

F[B-]1(F)n2c(c(-c3ccccc3)c(-c3ccccc3)c2-c2ccccc2)C=C2C(c3ccccc3)=C(c3ccccc3)C(c3ccccc3)=[N+]21
absorption maximum (in C1CCOC1): 576 nm

CC1=C(c2ccccc2)C2=Cc3c(-c4ccccc4)c(C)c(C)n3[B-](F)(F)[N+]2=C1C
absorption maximum (in CC#N): 538 nm

CC(C)(C)OC(=O)COc1ccc2c(c1)oc(=O)c1c(=O)oc3ccccc3c12
absorption maximum (in CS(C)=O): 366 nm
absorption maximum (in ClCCl): 365 nm

O=C(c1ccc2c3c(cccc13)-c1cccc3c1C2CC=C3)c1c(Cc2ccccc2)c2ccc3cccc4c5cccc6ccc1c(c65)c2c34 (stereo not drawn)
absorption maximum (in ClCCl): 467 nm

COc1ccc(-c2cc3oc(=O)cc(C)c3cc2-c2ccc(OC)c(OC)c2)cc1OC
absorption maximum (in C1CCOC1): 346 nm

CN(C)c1ccc(C2=Nc3sc4cc(F)ccc4[n+]3[B-](F)(F)O2)cc1
absorption maximum (in C1CCOC1): 425 nm
absorption maximum (in CC#N): 422 nm
absorption maximum (in CC(C)=O): 426 nm
absorption maximum (in Cc1ccccc1): 423 nm
absorption maximum (in ClCCl): 425 nm

F[Si-](F)(c1c2ccccc2cc2ccccc12)(c1c2ccccc2cc2ccccc12)c1c2ccccc2cc2ccccc12
absorption maximum (in C1CCOC1): 392 nm

CCCCCCc1ccc2c(/C=N/c3cc(/N=C/c4c(O)ccc5cc(CCCCCC)ccc45)cc(/N=C/c4c(O)ccc5cc(CCCCCC)ccc45)c3)c(O)ccc2c1
absorption maximum (in C1CCOC1): 477 nm
absorption maximum (in CC#N): 474 nm
absorption maximum (in Cc1ccccc1): 480 nm
absorption maximum (in ClCCl): 479 nm

CCCc1ccc(C#Cc2cc(C#Cc3ccc(CCC)cc3)c3ccc4c(C#Cc5ccc(N(C)C)cc5)cc(C#Cc5ccc(CCC)cc5)c5ccc2c3c54)cc1
absorption maximum (in ClCCl): 473 nm

C[C@]12SC(=O)C=C1c1nc(-c3ccc(Cl)cc3Cl)[nH]c1C1=CC(=O)S[C@@]12C
absorption maximum (in CC#N): 475 nm

O=C1C=C(Nc2cccc(F)c2)C(=O)c2ccccc21
absorption maximum (in CCCCCC): 440 nm
absorption maximum (in CO): 459 nm

CC[N+]1(CC)CN2C(=N1)C(C(=O)O)=Cc1ccc(OC)cc12
absorption maximum (in O): 372 nm

Cc1cc(C)c(C2=C3C=C(/C=C/C(=O)OCc4ccccc4)C=[N+]3[B-](F)(F)n3cccc32)c(C)c1
absorption maximum (in ClCCl): 537 nm

N#C/C(=C\c1ccc(C#N)cc1)c1nc(-c2ccc(Cl)cc2)c(-c2ccccc2)s1
absorption maximum (in CC#N): 377 nm

O=[N+]([O-])c1ccc([N+]2=CC3=C(O[B-]2(F)F)c2ccccc2SC3)cc1
absorption maximum (in ClCCl): 440 nm

C(=C\c1cc(-c2ccccc2)c(/C=C/c2ccc(N(c3ccccc3)c3ccccc3)cc2)cc1-c1ccccc1)/c1ccc(N(c2ccccc2)c2ccccc2)cc1
absorption maximum (in ClCCl): 415 nm

Cc1cc(C)c(B(c2ccccc2N2c3ccccc3Oc3ccccc32)c2c(C)cc(C)cc2C)c(C)c1
absorption maximum (in Cc1ccccc1): 445 nm

O=C([O-])c1cc(N2C(=O)C=CC2=O)ccc1-c1c2cc(F)c(=O)cc-2oc2cc([O-])c(F)cc12
absorption maximum (in O): 493 nm

COc1ccc(-c2cnc(-c3cccnc3)o2)cc1OC
absorption maximum (in ClCCl): 330 nm

N#Cc1nc(-c2ccc(N3c4ccccc4Oc4ccccc43)cc2)c(-c2ccc(N3c4ccccc4Oc4ccccc43)cc2)nc1C#N
absorption maximum (in Cc1ccccc1): 473 nm

CN(C)c1cc(-c2ccc(C#Cc3ccncc3)cc2)cc2ccccc12
absorption maximum (in CC#N): 306.26 nm
absorption maximum (in CCO): 309.39 nm
absorption maximum (in ClCCl): 311 nm

CC(C)CCCN1c2ccccc2CCc2ccccc21
absorption maximum (in CC#N): 276 nm
absorption maximum (in CO): 276 nm

O=C1c2ccccc2S(=O)(=O)c2ccc(-n3c4ccccc4c4ccccc43)cc21
absorption maximum (in C1CCOC1): 404 nm
absorption maximum (in CCCCCC): 404 nm
absorption maximum (in Cc1ccccc1): 404 nm
absorption maximum (in ClC(Cl)Cl): 404 nm
absorption maximum (in ClCCl): 404 nm

Cc1ccc(C2CC(c3ccc(O)cc3)=NN2c2ccc(S(N)(=O)=O)cc2)cc1 (stereo not drawn)
absorption maximum (in C1CCOC1): 359 nm
absorption maximum (in C1COCCO1): 360 nm
absorption maximum (in CC#N): 358 nm
absorption maximum (in CC(C)O): 358 nm
absorption maximum (in CCO): 358 nm
absorption maximum (in CCOC(C)=O): 358 nm
absorption maximum (in CN(C)C=O): 362 nm
absorption maximum (in CO): 357 nm
absorption maximum (in CS(C)=O): 364 nm
absorption maximum (in O): 360 nm

CCC(C)(C)c1ccc(-c2ccc3c(c2)C(CCOC)(CCOC)c2cc(C(C)(C)CC)ccc2-3)cc1
absorption maximum (in C1CCCCC1): 318 nm

COc1ccc(-c2nc3ccccc3nc2-c2ccc(OC)cc2)cc1
absorption maximum (in ClC(Cl)Cl): 368 nm

COc1ccc2c(-c3nc(-c4cccc(Br)c4)no3)cc(=O)oc2c1
absorption maximum (in CCO): 259 nm
absorption maximum (in ClC(Cl)Cl): 360 nm

CN(C)CCNc1ccc([N+](=O)[O-])cc1[N+](=O)[O-]
absorption maximum (in C1CCCCC1): 334 nm
absorption maximum (in C1CCOC1): 352 nm
absorption maximum (in C1COCCO1): 348 nm
absorption maximum (in CC#N): 352 nm
absorption maximum (in CC(C)=O): 352 nm
absorption maximum (in CCCCCC): 330 nm
absorption maximum (in CCO): 348 nm
absorption maximum (in CCOC(C)=O): 347 nm
absorption maximum (in CN(C)C=O): 358 nm
absorption maximum (in CO): 350 nm
absorption maximum (in CS(C)=O): 363 nm
absorption maximum (in Cc1ccccc1): 347 nm
absorption maximum (in ClC(Cl)Cl): 350 nm
absorption maximum (in ClCCl): 352 nm

COc1ccc(-n2c(C)ccc2C)cc1
absorption maximum (in CC#N): 224 nm
absorption maximum (in CCCCCC): 222 nm

CC[N+]1(CC)CN2C(=N1)C(C(=O)O)=Cc1cc(Cl)ccc12
absorption maximum (in O): 377 nm

CC(C)(C(=O)c1ccc(N2c3ccccc3Oc3ccccc32)cc1)C(=O)c1ccc(N2c3ccccc3Oc3ccccc32)cc1
absorption maximum (in Cc1ccccc1): 416 nm

CN(C)c1ccc(C2=C3C=C(c4ccc(C=O)cc4)S[C@]34c3ccccc3[C@H]2c2ccccc24)cc1
absorption maximum (in ClCCl): 464 nm

COc1ccc(-c2ccc(-c3ccccc3)cc2)cc1
absorption maximum (in C1CCCCC1): 291 nm

c1ccc(-c2nc(-c3cccs3)[nH]c2-c2ccccc2)cc1
absorption maximum (in CC#N): 317 nm

CN1C(=O)c2cccc3c(-n4c5ccccc5c5ccccc54)ccc(c23)C1=O
absorption maximum (in C1CCOC1): 408 nm
absorption maximum (in CCCCCC): 402 nm
absorption maximum (in ClC(Cl)Cl): 404 nm
absorption maximum (in ClCCl): 414 nm

CCCCCCOc1cc(C=C(C#N)C#N)c(OCCCCCC)cc1C=C(C#N)C#N
absorption maximum (in ClCCl): 477 nm

CCCCN1C(=O)c2cc(Oc3ccc(C(C)(C)C)cc3)c3c4c(Oc5ccc(C(C)(C)C)cc5)cc5c(=O)[nH]/c(=C\c6ccccn6)c6cc(Oc7ccc(C(C)(C)C)cc7)c(c7c(Oc8ccc(C(C)(C)C)cc8)cc(c2c37)C1=O)c4c56
absorption maximum (in ClCCl): 615 nm

CCN(CC)c1c2ccc(=[N+]3CCCCC3)cc-2oc2cc(N3CCCCC3)ccc12
absorption maximum (in ClCCl): 499 nm

CCOC(=O)c1cc(C(=O)OCC)c2ccccc2n1
absorption maximum (in CCO): 319 nm

CC(C)c1cc(C(C)C)c(B2c3cc(-n4c5ccccc5c5ccccc54)ccc3N(c3ccccc3)c3ccc(-n4c5ccccc5c5ccccc54)cc32)c(C(C)C)c1
absorption maximum (in C1CCCCC1): 400 nm

O=c1c2cc(F)c(N3CCOCC3)cc2oc2cc(N3CCOCC3)c(F)cc12
absorption maximum (in CCO): 344 nm

CCc1ccc(-c2nc(-c3ccc(-n4c5ccccc5c5ccccc54)cc3)cc(-c3ccc(-n4c5ccccc5c5ccccc54)cc3)n2)cc1
absorption maximum (in C1CCOC1): 343 nm
absorption maximum (in CN(C)C=O): 344 nm
absorption maximum (in Cc1ccccc1): 354 nm
absorption maximum (in ClC(Cl)Cl): 344 nm

FC(F)(F)c1ccc(/C=C2\C=C(c3ccccc3)C=C2c2ccccc2)cc1
absorption maximum (in C1CCOC1): 450 nm

CC/[NH+]=c1\cc2oc3cc(NCCO)c4ccccc4c3nc-2cc1C
absorption maximum (in CCO): 590 nm
absorption maximum (in O): 590 nm

O=c1oc2ccccc2c2c1c(=O)oc1cc(O)c3ccccc3c12
absorption maximum (in CS(C)=O): 441 nm
absorption maximum (in ClCCl): 442 nm

Cc1cc(C)c(C2=C3C=C(/C=C/C(=O)OC(C)(C)C)C=[N+]3[B-](F)(F)n3c2ccc3N2CCCC2)c(C)c1
absorption maximum (in ClCCl): 479 nm

C(=C\c1ccc(-c2ccc(/C=C/c3ccc(-n4c5ccccc5c5ccccc54)cc3)s2)s1)/c1ccc(-n2c3ccccc3c3ccccc32)cc1
absorption maximum (in Cc1ccccc1): 440.22 nm

CCCCCCN(CCCCCC)c1ccc(C#Cc2ccc(-c3ccc(C#Cc4ccc(N(CCCCCC)CCCCCC)cc4)cc3)cc2)cc1
absorption maximum (in Cc1ccccc1): 374 nm

CC(C)(C)NC(=O)c1ccc(F)c2ccc3c4ccccc4c4ccccc4c3c12
absorption maximum (in ClCCl): 334 nm

CC(C)[Si](C#Cc1c2cc3ccccc3cc2c(C#Cc2ccc(C(F)(F)F)cc2)c2cc3ccccc3cc12)(C(C)C)C(C)C
absorption maximum (in ClCCl): 654 nm

Cc1ccc(C2CC(=O)Oc3c2c2nc4ccc(C)cc4nc2c2ccccc32)cc1 (stereo not drawn)
absorption maximum (in ClC(Cl)Cl): 411 nm

N#CC(C#N)=Cc1ccc2c(c1)[nH]c1c3ccccc3sc21
absorption maximum (in ClCCl): 445 nm

CCN(CC)c1ccc2c(-c3ccccc3C(=O)O)c3c([o+]c2c1)/C(=C/c1ccc(N(C)C)s1)CCC3
absorption maximum (in ClCCl): 733 nm

OCCSc1cccc2[n+]1[B-](F)(F)n1c(c3cccc4cccc1c43)=N2
absorption maximum (in C1CCOC1): 485 nm
absorption maximum (in CC#N): 480 nm
absorption maximum (in CCCCCC): 484 nm
absorption maximum (in Cc1ccccc1): 487 nm
absorption maximum (in ClCCl): 482 nm and 453 nm

BrC1=CN2C[n+]3cc(Br)ccc3N=C2C=C1
absorption maximum (in CO): 434 nm

CCCCCCCCCCCCN1C(=O)c2c(c3ccc4cc(-c5ccc(F)cc5)c(OC)cc4c3c3c2ccc2cc(-c4ccc(F)cc4)c(OC)cc23)C1=O
absorption maximum (in ClCCl): 431 nm

N#CC(C#N)=Cc1ccc(-c2ccc(N(c3ccccc3)c3ccccc3)cc2)s1
absorption maximum (in ClC(Cl)Cl): 506 nm
